From ChEMBL document CHEMBL1139605, “Novel ketal ligands for the glucocorticoid receptor: in vitro and in vivo activity” (Bioorg Med Chem Lett, 2005)

Experiments:
Glucocorticoid receptor [1] = target: T1, Glucocorticoid receptor (Homo sapiens, UniProt P04150); experiment: Inhibition of human glucocorticoid receptor alpha isoform
T1 sequence (P04150 whole entry): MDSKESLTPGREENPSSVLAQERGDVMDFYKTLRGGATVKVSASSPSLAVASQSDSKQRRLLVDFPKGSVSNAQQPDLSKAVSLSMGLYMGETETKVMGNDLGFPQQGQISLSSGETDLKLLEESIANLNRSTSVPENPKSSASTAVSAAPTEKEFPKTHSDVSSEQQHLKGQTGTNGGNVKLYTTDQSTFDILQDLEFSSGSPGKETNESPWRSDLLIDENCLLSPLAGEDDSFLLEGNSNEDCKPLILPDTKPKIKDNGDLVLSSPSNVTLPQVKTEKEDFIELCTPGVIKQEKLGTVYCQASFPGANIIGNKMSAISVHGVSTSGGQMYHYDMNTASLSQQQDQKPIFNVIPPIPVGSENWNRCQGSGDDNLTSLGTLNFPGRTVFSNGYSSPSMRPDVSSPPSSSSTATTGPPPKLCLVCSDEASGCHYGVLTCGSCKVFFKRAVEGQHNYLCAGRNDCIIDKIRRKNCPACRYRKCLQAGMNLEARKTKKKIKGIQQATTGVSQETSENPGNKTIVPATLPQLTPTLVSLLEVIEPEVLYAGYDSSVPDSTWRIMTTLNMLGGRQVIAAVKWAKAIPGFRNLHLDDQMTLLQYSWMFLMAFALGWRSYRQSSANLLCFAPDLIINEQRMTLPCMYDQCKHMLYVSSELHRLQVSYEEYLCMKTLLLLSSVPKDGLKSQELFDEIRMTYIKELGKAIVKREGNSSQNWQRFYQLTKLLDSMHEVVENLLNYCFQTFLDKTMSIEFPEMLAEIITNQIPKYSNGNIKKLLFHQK

[2] = Effective concentration required for induction of glutamine synthetase in human skeletal muscle cells using 58% radiolabeled Dexamethasone; format: functional
Mus musculus [3] = species: Mus musculus; experiment: Effective concentration required for inhibition of interleukin-6 in mouse thioglycolate-elicited peritoneal exudate cell line using 66% radiolabeled Dexamethasone; format: functional
Estrogen receptor beta = Estrogen receptor beta (Homo sapiens, UniProt Q92731); experiment: Binding affinity for human estrogen receptor beta
Progesterone receptor = target: T2, Progesterone receptor (Homo sapiens, UniProt P06401); experiment: Binding affinity for human progesterone receptor
T2 sequence (P06401 whole entry): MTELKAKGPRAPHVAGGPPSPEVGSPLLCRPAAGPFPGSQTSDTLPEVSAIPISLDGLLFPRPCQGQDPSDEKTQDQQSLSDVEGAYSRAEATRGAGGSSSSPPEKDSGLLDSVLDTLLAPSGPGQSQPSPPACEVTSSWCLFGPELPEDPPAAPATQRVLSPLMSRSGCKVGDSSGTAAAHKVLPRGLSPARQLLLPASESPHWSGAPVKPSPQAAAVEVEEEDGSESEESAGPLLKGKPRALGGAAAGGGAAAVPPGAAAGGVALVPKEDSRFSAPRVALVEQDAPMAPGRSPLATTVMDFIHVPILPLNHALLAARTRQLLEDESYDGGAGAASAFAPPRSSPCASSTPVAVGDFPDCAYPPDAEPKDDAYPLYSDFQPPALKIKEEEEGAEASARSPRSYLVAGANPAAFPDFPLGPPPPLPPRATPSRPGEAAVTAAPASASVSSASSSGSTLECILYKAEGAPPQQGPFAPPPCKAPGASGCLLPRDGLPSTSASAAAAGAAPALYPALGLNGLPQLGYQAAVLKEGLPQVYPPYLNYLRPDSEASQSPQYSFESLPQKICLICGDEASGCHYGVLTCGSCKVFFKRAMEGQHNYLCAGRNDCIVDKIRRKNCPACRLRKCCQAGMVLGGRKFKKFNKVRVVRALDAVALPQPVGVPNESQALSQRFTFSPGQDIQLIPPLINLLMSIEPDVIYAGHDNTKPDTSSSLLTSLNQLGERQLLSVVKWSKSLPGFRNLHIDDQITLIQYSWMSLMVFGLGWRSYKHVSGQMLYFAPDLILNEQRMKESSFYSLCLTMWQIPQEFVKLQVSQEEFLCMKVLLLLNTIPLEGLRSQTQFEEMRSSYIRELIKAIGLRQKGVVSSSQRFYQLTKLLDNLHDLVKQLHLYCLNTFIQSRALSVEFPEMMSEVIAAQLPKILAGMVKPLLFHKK

Glucocorticoid receptor [4] = target: T1, Glucocorticoid receptor; experiment: Binding affinity for human glucocorticoid receptor
[5] = target: T3, Mineralocorticoid receptor (Rattus norvegicus, UniProt P22199); experiment: Binding affinity for rat mineralocorticoid receptor
T3 sequence (P22199 whole entry): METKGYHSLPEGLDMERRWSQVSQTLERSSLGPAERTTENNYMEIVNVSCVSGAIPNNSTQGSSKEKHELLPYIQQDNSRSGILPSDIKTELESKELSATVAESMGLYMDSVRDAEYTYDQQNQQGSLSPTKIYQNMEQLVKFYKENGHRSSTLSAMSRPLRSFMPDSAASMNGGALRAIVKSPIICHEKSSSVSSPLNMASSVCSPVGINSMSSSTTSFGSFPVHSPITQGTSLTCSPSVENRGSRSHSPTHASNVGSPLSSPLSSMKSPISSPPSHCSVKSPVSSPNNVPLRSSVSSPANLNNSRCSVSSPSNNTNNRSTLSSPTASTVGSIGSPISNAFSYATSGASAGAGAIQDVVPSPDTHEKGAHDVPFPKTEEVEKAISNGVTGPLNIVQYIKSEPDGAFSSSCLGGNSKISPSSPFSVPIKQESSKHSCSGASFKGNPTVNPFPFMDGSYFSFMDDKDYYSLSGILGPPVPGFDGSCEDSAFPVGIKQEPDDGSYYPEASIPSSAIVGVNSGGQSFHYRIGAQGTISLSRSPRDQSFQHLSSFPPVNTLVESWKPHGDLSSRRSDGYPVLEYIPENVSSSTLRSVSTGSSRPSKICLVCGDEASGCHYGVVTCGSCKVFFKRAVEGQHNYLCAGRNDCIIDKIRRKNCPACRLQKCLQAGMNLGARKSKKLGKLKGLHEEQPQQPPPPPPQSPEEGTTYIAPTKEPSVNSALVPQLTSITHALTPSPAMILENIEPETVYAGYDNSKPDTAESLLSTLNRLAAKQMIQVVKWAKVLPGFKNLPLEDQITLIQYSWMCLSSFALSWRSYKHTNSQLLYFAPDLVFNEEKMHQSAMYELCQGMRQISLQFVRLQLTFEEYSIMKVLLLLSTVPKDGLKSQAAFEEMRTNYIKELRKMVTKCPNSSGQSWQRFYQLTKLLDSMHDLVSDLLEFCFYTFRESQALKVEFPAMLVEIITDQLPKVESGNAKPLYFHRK

Estrogen receptor = target: T4, Estrogen receptor (Homo sapiens, UniProt P03372); experiment: Binding affinity for human estrogen receptor alpha
T4 sequence (P03372 whole entry): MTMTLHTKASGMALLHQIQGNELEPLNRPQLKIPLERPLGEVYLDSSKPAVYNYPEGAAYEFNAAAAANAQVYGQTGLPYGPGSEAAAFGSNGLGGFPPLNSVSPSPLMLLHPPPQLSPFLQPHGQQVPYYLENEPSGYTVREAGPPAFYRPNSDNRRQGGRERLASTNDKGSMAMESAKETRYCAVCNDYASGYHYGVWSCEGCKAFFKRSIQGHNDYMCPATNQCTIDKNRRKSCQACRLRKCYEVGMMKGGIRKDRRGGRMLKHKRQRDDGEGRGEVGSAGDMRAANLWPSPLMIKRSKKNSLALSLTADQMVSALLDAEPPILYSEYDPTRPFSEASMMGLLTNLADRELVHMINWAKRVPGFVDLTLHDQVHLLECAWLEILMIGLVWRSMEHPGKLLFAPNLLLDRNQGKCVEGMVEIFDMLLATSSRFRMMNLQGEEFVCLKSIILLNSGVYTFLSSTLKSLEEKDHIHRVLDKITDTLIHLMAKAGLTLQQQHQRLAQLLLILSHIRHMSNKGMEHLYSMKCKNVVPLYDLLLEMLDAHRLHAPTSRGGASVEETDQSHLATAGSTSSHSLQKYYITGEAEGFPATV

A549 [6] = experiment: Effective concentration for inhibition of interleukin-6 in human A549 lung carcinoma cell line using 67% radiolabeled Dexamethasone; format: functional, cell-based
Mus musculus [7] = species: Mus musculus; experiment: Effective concentration required for inhibition of interleukin-6 in mouse thioglycolate-elicited peritoneal exudate cell line using 79% radiolabeled Dexamethasone; format: functional
A549 [8] = experiment: Effective concentration required for inhibition of interleukin-6 in human A549 lung carcinoma cell line using […]% radiolabeled Dexamethasone; format: functional, cell-based
A549 [9] = experiment: Effective concentration for inhibition of interleukin-6 in human A549 lung carcinoma cell line using 32% radiolabeled Dexamethasone; format: functional, cell-based
A549 [10] = experiment: Effective concentration for inhibition of interleukin-6 in human A549 lung carcinoma cell line using […]% radiolabeled Dexamethasone; format: functional, cell-based
Mus musculus [11] = species: Mus musculus; experiment: Effective concentration required for inhibition of interleukin-6 in mouse thioglycolate-elicited peritoneal exudate cell line using 81% radiolabeled Dexamethasone; format: functional
A549 [12] = experiment: Effective concentration for inhibition of interleukin-6 in human A549 lung carcinoma cell line using 65% radiolabeled Dexamethasone; format: functional, cell-based
HepG2 = experiment: Effective concentration required for induction of tyrosine aminotransferase in human HepG2 cells using 81% radiolabeled Dexamethasone; format: functional, cell-based
[13] = Effective concentration required for induction of glutamine synthetase in human skeletal muscle cells using 97% radiolabeled Dexamethasone; format: functional
Mus musculus [14] = species: Mus musculus; experiment: Effective concentration required for inhibition of interleukin-6 in mouse thioglycolate-elicited peritoneal exudate cell line using 95% radiolabeled Dexamethasone; format: functional
A549 [15] = experiment: Effective concentration required for inhibition of interleukin-6 in human A549 lung carcinoma cell line using 102% radiolabeled Dexamethasone; format: functional, cell-based
A549 [16] = experiment: Effective concentration for inhibition of interleukin-6 in human A549 lung carcinoma cell line using 69% radiolabeled Dexamethasone; format: functional, cell-based

Estrogen receptor beta, sequence (Q92731 whole entry): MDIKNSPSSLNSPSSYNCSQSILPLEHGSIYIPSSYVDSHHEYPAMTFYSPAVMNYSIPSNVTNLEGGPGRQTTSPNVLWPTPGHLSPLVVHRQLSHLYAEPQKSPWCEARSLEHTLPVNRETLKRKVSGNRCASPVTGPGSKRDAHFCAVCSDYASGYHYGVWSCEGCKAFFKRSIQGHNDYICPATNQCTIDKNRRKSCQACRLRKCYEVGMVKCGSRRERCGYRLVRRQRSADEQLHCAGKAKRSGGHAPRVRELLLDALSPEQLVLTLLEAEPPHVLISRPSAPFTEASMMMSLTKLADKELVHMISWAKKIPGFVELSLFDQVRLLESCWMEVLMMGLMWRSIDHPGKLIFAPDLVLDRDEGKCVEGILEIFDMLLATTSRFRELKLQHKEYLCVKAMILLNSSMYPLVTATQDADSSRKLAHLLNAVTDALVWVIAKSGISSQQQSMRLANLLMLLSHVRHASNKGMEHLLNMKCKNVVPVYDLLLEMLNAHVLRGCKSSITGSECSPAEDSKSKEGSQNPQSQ

C=C[C@@H]1CO[C@@]2(CCC3=Cc4c(cnn4-c4ccc(F)cc4)C[C@@]32C)O1
IC50 (Glucocorticoid receptor [1]): 38 nM

CCC[C@H]1OC2(CCCC3=Cc4c(cnn4-c4ccc(F)cc4)C[C@@]32C)O[C@@H]1CCC
EC50 [2]: 29 nM
IC50 (Glucocorticoid receptor [1]): 8.9 nM

C[C@]12Cc3cnn(-c4ccc(F)cc4)c3C=C1CCCC21O[C@H](c2ccccc2)[C@@H](c2ccccc2)O1
EC50 (Mus musculus [3]): 26 nM
IC50 (Glucocorticoid receptor [1]): 10 nM

C[C@H]1OC2(CCC3=Cc4c(cnn4-c4ccc(F)cc4)C[C@@]32C)O[C@@H]1C
IC50 (Estrogen receptor beta): > 10000 nM
IC50 (Progesterone receptor): > 1000 nM
IC50 (Glucocorticoid receptor [4]): 24 nM
IC50 (Glucocorticoid receptor [1]): 24 nM
IC50 [5]: > 10000 nM
IC50 (Estrogen receptor): > 10000 nM

C[C@]12Cc3cnn(-c4ccc(F)cc4)c3C=C1CC[C@@]21OC[C@H](c2ccccc2)O1
IC50 (Glucocorticoid receptor [1]): 65 nM

C[C@@H]1C[C@@H](C)OC2(CCCC3=Cc4c(cnn4-c4ccc(F)cc4)C[C@@]32C)O1 (some centres undefined)
IC50 (Glucocorticoid receptor [1]): 8.3 nM

C[C@]12Cc3cnn(-c4ccc(F)cc4)c3C=C1CC[C@@]21OC[C@@H](c2ccccc2)O1
IC50 (Glucocorticoid receptor [1]): 26 nM

C/C=C/[C@H]1OC2(CCCC3=Cc4c(cnn4-c4ccc(F)cc4)C[C@@]32C)O[C@@H]1/C=C/C
IC50 (Glucocorticoid receptor [1]): 2.5 nM
EC50 (A549 [6]): 7.8 nM
EC50 (Mus musculus [7]): 37 nM

C[C@]12Cc3cnn(-c4ccc(F)cc4)c3C=C1CCCC21OCCO1
IC50 (Estrogen receptor beta): > 10000 nM
IC50 (Progesterone receptor): > 1000 nM
IC50 (Glucocorticoid receptor [4]): 14 nM
IC50 (Glucocorticoid receptor [1]): 14 nM
IC50 [5]: 7560 nM
IC50 (Estrogen receptor): > 10000 nM

CCCC[C@H]1OC2(CCCC3=Cc4c(cnn4-c4ccc(F)cc4)C[C@@]32C)O[C@@H]1CCCC
EC50 (A549 [8]): 92 nM
IC50 (Glucocorticoid receptor [1]): 22 nM

CC[C@H]1OC2(CCCC3=Cc4c(cnn4-c4ccc(F)cc4)C[C@@]32C)O[C@@H]1CC
IC50 (Glucocorticoid receptor [1]): 5.5 nM
EC50 (Mus musculus [7]): 78 nM
EC50 (A549 [9]): 19 nM

C=C[C@H]1CO[C@@]2(CCC3=Cc4c(cnn4-c4ccc(F)cc4)C[C@@]32C)O1
IC50 (Glucocorticoid receptor [1]): 49 nM

CC1(C)COC2(CCC3=Cc4c(cnn4-c4ccc(F)cc4)C[C@@]32C)OC1
IC50 (Glucocorticoid receptor [1]): 28 nM
EC50 (A549 [10]): 12 nM

C[C@]12Cc3cnn(-c4ccc(F)cc4)c3C=C1CC[C@]21OC[C@H](c2ccccc2)O1
IC50 (Glucocorticoid receptor [1]): 12 nM

C[C@H]1OC2(CCCC3=Cc4c(cnn4-c4ccc(F)cc4)C[C@@]32C)O[C@@H]1C
IC50 (Glucocorticoid receptor [1]): 10 nM

C=C[C@H]1OC2(CCCC3=Cc4c(cnn4-c4ccc(F)cc4)C[C@@]32C)O[C@@H]1C=C
EC50 (Mus musculus [11]): 8.7 nM
IC50 (Estrogen receptor beta): > 10000 nM
IC50 (Progesterone receptor): > 1000 nM
IC50 (Glucocorticoid receptor [4]): 1.2 nM
IC50 (Glucocorticoid receptor [1]): 1.2 nM
EC50 (A549 [12]): 5.3 nM
IC50 [5]: 7400 nM
IC50 (Estrogen receptor): > 10000 nM

C[C@]12Cc3cnn(-c4ccc(F)cc4)c3C=C1CCC21OCCO1 (stereo in doubt; 2)
IC50 (Glucocorticoid receptor [1]): 13.8 nM
EC50 (HepG2): 211 nM
EC50 [13]: 32 nM
EC50 (Mus musculus [14]): 5.7 nM
EC50 (A549 [15]): 4.5 nM

C[C@]12Cc3cnn(-c4ccc(F)cc4)c3C=C1CCC21OCCO1 (stereo in doubt; 13)
IC50 (Estrogen receptor beta): > 10000 nM
IC50 (Progesterone receptor): > 1000 nM
IC50 (Glucocorticoid receptor [4]): 73 nM
IC50 (Glucocorticoid receptor [1]): 73 nM
IC50 [5]: > 10000 nM
EC50 (A549 [16]): 28 nM
IC50 (Estrogen receptor): > 10000 nM

C[C@@H]1C[C@@H](C)OC2(CCC3=Cc4c(cnn4-c4ccc(F)cc4)C[C@@]32C)O1 (stereo in doubt; form 2)
IC50 (Glucocorticoid receptor [1]): 8.4 nM
